Assay results published in the OPERA property sets (Mansouri et al. 2018).

Question: For `CCC1(CCC(C)C)C(=O)NC(=O)NC1=O`, which logP is on record?
Answer: Its logP is 2.07.

Question: Which logP does the source give for `CC(=O)c1ccc([N+](=O)[O-])cc1` here?
Answer: The logP was 1.53.

Question: Which logP does the source give for `O=[N+]([O-])C=Cc1ccccc1` here?
Answer: Its logP is 2.11.

Question: Which logP does the source give for `ON=Cc1ccncc1` here?
Answer: Its logP is 0.77.

Question: Which logP does the source give for `CCCCOc1ccc(C(=O)O)cc1` here?
Answer: Its logP is 3.57.

Question: With `CCCCC(CC)COC(=O)n1cnc(CC(NC(=O)C2CCC(=O)N2)C(=O)N2CCCC2C(N)=O)c1` (stereo not given) as the compound, how does the logP read?
Answer: Its logP is 1.82.

Question: For `COC(=O)c1ccccc1C(=O)O`, which logP is on record?
Answer: The logP was 1.13.

Question: Which logP does the source give for `CCC(=O)Nc1ccccc1` here?
Answer: Its logP is 1.61.

Question: For `CC(=O)Nc1ccc(OCC(O)CNC(C)C)cc1` (stereo not given), which logP is on record?
Answer: Its logP is 0.79.

Question: With `CNC(=S)N(C)C` as the compound, how does the logP read?
Answer: Its logP is 0.1.

Question: Which logP does the source give for `CS(=O)CC(=O)C=NO` (stereo not given) here?
Answer: Its logP is -0.72.

Question: For `S=C1CCCCCN1`, which logP is on record?
Answer: Its logP is 0.75.

Question: Which logP does the source give for `CCC(C)(C)C(=O)OC1CC(C)C=C2C=CC(C)C(CCC(O)CC(O)CC(=O)O)C21` (stereo not given) here?
Answer: The logP was 4.47.

Question: Which logP does the source give for `[N-]=[N+]=Nc1ccccc1` here?
Answer: The logP was 2.59.

Question: For `O=C1CCC(=O)N1c1ccccc1`, which logP is on record?
Answer: Its logP is 0.06.

Question: With `O=C1CC(Sc2ccccn2)N1` (stereo not given) as the compound, how does the logP read?
Answer: The logP was 0.61.

Question: Which logP does the source give for `CC(C)C[N+](=O)[O-]` here?
Answer: The logP was 1.4.

Question: For `CC(=O)C1CC1`, which logP is on record?
Answer: The logP was 0.49.

Question: For `Cc1ccc(C(=O)O)c(O)c1`, which logP is on record?
Answer: The logP was 2.99.

Question: Which logP does the source give for `c1ccc(-c2csnn2)cc1` here?
Answer: Its logP is 2.42.

Question: For `C[C@]12CC[C@H](O)C[C@H]1CC[C@@H]1[C@@H]2C[C@@H](O)[C@]2(C)[C@@H](C3=CC(=O)OC3)CC[C@]12O`, which logP is on record?
Answer: Its logP is 1.1.

Question: For `CCCCCC(C)(C)c1ccc(C2CCCC(O)C2)c(O)c1` (stereo not given), which logP is on record?
Answer: Its logP is 5.97.

Question: Which logP does the source give for `O=C(CN1CCCCC1)Nc1cccc(Br)c1` here?
Answer: Its logP is 3.62.

Question: For `C#CCO`, which logP is on record?
Answer: Its logP is -0.38.

Question: With `O=S1(=O)OC(c2ccc(O)cc2)(c2ccc(O)cc2)c2ccccc21` as the compound, how does the logP read?
Answer: The logP was 3.02.

Question: Which logP does the source give for `Cc1cc(Br)cnc1NS(=O)(=O)c1ccc(N)cc1` here?
Answer: The logP was 2.05.

Question: With `COc1cnnc2ccccc12` as the compound, how does the logP read?
Answer: Its logP is 1.41.

Question: For `CCN(CCO)c1ccccc1`, which logP is on record?
Answer: Its logP is 2.1.

Question: With `O=C(O)c1ccc(N=C=S)cc1` as the compound, how does the logP read?
Answer: The logP was 3.52.

Question: For `CC(=O)N(c1ccc(N2CCOCC2)nn1)n1c(C)ccc1C`, which logP is on record?
Answer: The logP was 1.64.

Question: Which logP does the source give for `CC(=O)Nc1ccncc1` here?
Answer: Its logP is 0.5.

Question: With `COc1ccc(CN(C)N=O)cc1` as the compound, how does the logP read?
Answer: Its logP is 1.62.

Question: With `CCSc1ccccc1` as the compound, how does the logP read?
Answer: The logP was 3.2.

Question: Which logP does the source give for `CC(=O)C(=Cc1cccc(Cl)c1)C(C)=O` here?
Answer: Its logP is 2.26.

Question: Which logP does the source give for `O=C(NCCN1CCC(O)(c2ccc(Cl)cc2)CC1)c1ccc(F)cc1` here?
Answer: Its logP is 2.85.

Question: For `COc1cccc(CC(=O)O)c1`, which logP is on record?
Answer: The logP was 1.5.

Question: For `Cc1n[nH]c(C(=O)NCCc2ccccc2)c1[N+](=O)[O-]`, which logP is on record?
Answer: The logP was 1.82.

Question: For `NNC(=O)c1cccc([N+](=O)[O-])c1`, which logP is on record?
Answer: Its logP is 0.23.

Question: For `CCC(C)c1cccc(C(C)C)c1O` (stereo not given), which logP is on record?
Answer: The logP was 3.85.

Question: With `c1ccc2c(c1)ccc1ccccc12` as the compound, how does the logP read?
Answer: The logP was 4.46.

Question: With `CCOC(=O)C(Cl)(Cl)Cl` as the compound, how does the logP read?
Answer: The logP was 2.39.

Question: With `NC(CC12CC3CC(CC(C3)C1)C2)C(=O)O` (stereo not given) as the compound, how does the logP read?
Answer: The logP was 0.43.

Question: With `CCCCF` as the compound, how does the logP read?
Answer: The logP was 2.58.

Question: Which logP does the source give for `CNC(=O)Oc1cc(C(C)C)cc(C(C)C)c1` here?
Answer: The logP was 3.79.

Question: For `CC(C)c1cc([N+](=O)[O-])cc([N+](=O)[O-])c1O`, which logP is on record?
Answer: Its logP is 3.1.

Question: With `O=C(O)c1c[nH]c2ccccc12` as the compound, how does the logP read?
Answer: Its logP is 1.99.

Question: With `CC(=O)Nc1ccc2cccccc1-2` as the compound, how does the logP read?
Answer: Its logP is 2.48.

Question: With `Cc1ccccc1OCC(O)CO` (stereo not given) as the compound, how does the logP read?
Answer: Its logP is 1.41.

Question: With `O=C1C=CC(=O)c2c(O)cccc21` as the compound, how does the logP read?
Answer: The logP was 1.92.

Question: Which logP does the source give for `NC(=O)C1(N2CCCCC2)CCN(CCCC(=O)c2ccc(F)cc2)CC1` here?
Answer: Its logP is 2.02.

Question: Which logP does the source give for `CCCCOCCOCCSC#N` here?
Answer: The logP was 1.68.

Question: For `COc1ccc(NC(=O)N(C)C)cc1Cl`, which logP is on record?
Answer: Its logP is 1.64.

Question: With `c1ccc(Cc2ccncc2)cc1` as the compound, how does the logP read?
Answer: The logP was 2.62.

Question: Which logP does the source give for `O=C(C=Cc1ccccc1)Nc1ccccc1` here?
Answer: The logP was 3.61.

Question: With `CCCOc1cncc(C)n1` as the compound, how does the logP read?
Answer: The logP was 2.29.

Question: For `C[C@]12CC[C@H]3[C@@H](CCC4=CC(=O)CC[C@@H]43)[C@@H]1CC[C@@H]2O`, which logP is on record?
Answer: The logP was 2.62.

Question: Which logP does the source give for `Cc1onc(-c2ccccc2)c1C(=O)NC1C(=O)N2C1SC(C)(C)C2C(=O)O` (stereo not given) here?
Answer: Its logP is 2.38.

Question: For `CCOP(=S)(OCC)SCCS(=O)(=O)CC`, which logP is on record?
Answer: The logP was 1.87.

Question: With `Nc1nc(N)nc(-c2ccccc2Cl)n1` as the compound, how does the logP read?
Answer: Its logP is 1.19.

Question: With `CCOC(=O)c1ccco1` as the compound, how does the logP read?
Answer: The logP was 1.52.

Question: Which logP does the source give for `Nc1nc2nc[nH]c2c(=S)[nH]1` here?
Answer: Its logP is -0.07.

Question: With `O=C(Nc1ccccc1)C1CNCCN1` (stereo not given) as the compound, how does the logP read?
Answer: The logP was 0.48.

Question: With `CN1C(=O)c2ccccc2C1=O` as the compound, how does the logP read?
Answer: Its logP is 1.31.

Question: Which logP does the source give for `CCCCCc1ccncc1` here?
Answer: The logP was 3.75.

Question: Which logP does the source give for `S=C=Nc1ccc(Br)cc1` here?
Answer: Its logP is 4.03.

Question: For `CCCC(=NOCC)C1C(=O)CC2(CCCCC2)OC1=O` (stereo not given), which logP is on record?
Answer: The logP was 3.62.

Question: With `CC(=O)CCC(=O)O` as the compound, how does the logP read?
Answer: The logP was -0.49.

Question: For `CCCCCl`, which logP is on record?
Answer: Its logP is 2.64.

Question: For `NC12CC3CC(CC(C3)C1)C2`, which logP is on record?
Answer: Its logP is 2.44.

Question: Which logP does the source give for `CBr` here?
Answer: The logP was 1.19.

Question: Which logP does the source give for `CCc1ccc(N)cc1` here?
Answer: The logP was 1.96.

Question: With `O=c1nc[nH]c(=O)[nH]1` as the compound, how does the logP read?
Answer: Its logP is -1.87.

Question: With `CC(Oc1ccc(Cl)cc1)C(=O)O` (stereo not given) as the compound, how does the logP read?
Answer: Its logP is 2.31.

Question: With `CC(=O)OCC1=C(C(=O)O)N2C(=O)[C@@H](NC(=O)CC#N)[C@H]2SC1` as the compound, how does the logP read?
Answer: Its logP is -0.45.

Question: Which logP does the source give for `CC(C)c1ccccc1OCC(=O)O` here?
Answer: The logP was 2.84.

Question: For `CCCBr`, which logP is on record?
Answer: Its logP is 2.1.

Question: With `CCCCCC(C)O` (stereo not given) as the compound, how does the logP read?
Answer: The logP was 2.31.

Question: Which logP does the source give for `N#CSCc1ccccc1` here?
Answer: Its logP is 1.99.

Question: With `COc1ccccc1NS(=O)(=O)c1ccc(N)cc1` as the compound, how does the logP read?
Answer: Its logP is 1.56.

Question: With `CCOC(=O)CC` as the compound, how does the logP read?
Answer: The logP was 1.21.

Question: For `Nc1ccc2cc3ccc(N)cc3nc2c1`, which logP is on record?
Answer: Its logP is 1.83.

Question: For `Cc1c(Cl)cc(-c2ccc(=O)[nH]n2)cc1Cl`, which logP is on record?
Answer: The logP was 3.2.

Question: For `CCCCc1ccc(S(N)(=O)=O)cc1`, which logP is on record?
Answer: The logP was 2.45.

Question: With `CC1CN(N=O)CC(C)N1` (stereo not given) as the compound, how does the logP read?
Answer: Its logP is 0.73.

Question: With `C(=NN1CCCCC1)c1ccccc1` as the compound, how does the logP read?
Answer: Its logP is 3.04.
